From ChEMBL document CHEMBL1153212, “P4 capped amides and lactams as HCV NS3 protease inhibitors with improved potency and DMPK profile” (Bioorg Med Chem Lett, 2010) come the findings set out here.

The subject of one data set is Hepatitis C virus. Nature of the data set: Antiviral activity against HCV assessed as inhibition of viral RNA replication. The data set is classed as functional, Hepacivirus hominis.
A short description of data set [1]: Inhibition of HCV NS4A-tethered single chain NS3 serine protease by spectrophotometric assay. Also on record: species or system Hepacivirus hominis.
The nature of data set [2]: Selectivity for HCV NS4A-tethered single chain NS3 serine protease over human neutrophil elastase.
Data set [3] in a line: AUC in rat at 10 mg/kg, po. Details: dose 10 mg/kg, route oral. It is filed as ADME, organism-based. The settings on record: plasma.

Regarding `C=CCNC(=O)C(=O)C(CCC)NC(=O)[C@@H]1[C@@H]2[C@H](CN1C(=O)[C@@H](NC(=O)N[C@@H](CN1CCCCC1=O)C(C)(C)C)C(C)(C)C)C2(C)C` (stereo not given in full), in the data set on Hepatitis C virus, the EC90 stood at 350 nM. The inhibition constant Ki in data set [1] was found to be 14 nM. In data set [2], the Ratio was 320.

Consider `C=CCNC(=O)C(=O)C(CCC)NC(=O)[C@@H]1[C@@H]2[C@H](CN1C(=O)[C@@H](NC(=O)N[C@@H](CN1CCCNC1=O)C(C)(C)C)C(C)(C)C)C2(C)C` (stereo not given in full), for which the EC90 with Hepatitis C virus was found to be 180 nM. In addition, the AUC in data set [3] is 0.07 µM·h. The Ki in data set [1] was 4.9 nM. In addition, in data set [2], the Ratio worked out at 360.

Turning to `C=CCNC(=O)C(=O)C(CCC)NC(=O)[C@@H]1[C@@H]2[C@H](CN1C(=O)[C@@H](NC(=O)N[C@@H](CN1CCC(C)(C)CC1=O)C(C)(C)C)C(C)(C)C)C2(C)C` (stereo not given in full), in the data set with Hepatitis C virus, the EC90 was 80 nM. In data set [3], this molecule came in with an AUC of 2.3 µM·h. In data set [1], this molecule showed an inhibition constant (Ki) of 17 nM. For the same molecule, the Ratio in data set [2] is 310.

In data set [1], `C=CCNC(=O)C(=O)C(CCC)NC(=O)[C@@H]1[C@@H]2[C@H](CN1C(=O)[C@@H](NC(=O)N[C@@H](CN1CCCC(C)(C)C1=O)C(C)(C)C)C(C)(C)C)C2(C)C` (stereo not given in full) returned a Ki of 89 nM. Moreover, in data set [2], the Ratio stood at 90.

As for `C=CCNC(=O)C(=O)C(CCC)NC(=O)[C@@H]1[C@@H]2[C@H](CN1C(=O)[C@@H](NC(=O)N[C@@H](CN1CCCC1=O)C(C)(C)C)C(C)(C)C)C2(C)C` (stereo not given in full), the EC90 in the data set with Hepatitis C virus was 700 nM. Besides, in data set [1], the Ki amounted to 37 nM. For the same molecule, the Ratio in data set [2] is 60.

Turning to `C=CCNC(=O)C(=O)C(CCC)NC(=O)[C@@H]1[C@@H]2[C@H](CN1C(=O)[C@@H](NC(=O)N[C@@H](CN1CC3CCC(C3)C1=O)C(C)(C)C)C(C)(C)C)C2(C)C` (stereo not given in full), the EC90 with Hepatitis C virus is 60 nM. Besides, the AUC in data set [3] stood at 0.53 µM·h. For the same molecule, the affinity in data set [1], expressed as Ki, was 8 nM. For the same molecule, the Ratio in data set [2] worked out at 613.

In data set [1], `C=CCNC(=O)C(=O)C(CCC)NC(=O)[C@@H]1[C@@H]2[C@H](CN1C(=O)[C@@H](NC(=O)N[C@@H](CN1Cc3ccccc3C1=O)C(C)(C)C)C(C)(C)C)C2(C)C` (stereo not given in full) gave a Ki of 40 nM. The Ratio in data set [2] turned out to be 1500.

With `C=CCNC(=O)C(=O)C(CCC)NC(=O)[C@@H]1[C@@H]2[C@H](CN1C(=O)[C@@H](NC(=O)N[C@@H](CN1CCCOC1=O)C(C)(C)C)C(C)(C)C)C2(C)C` (stereo not given in full), in the data set with Hepatitis C virus, the EC90 was 350 nM. Further, the Ki in data set [1] came out at 10 nM. Besides, in data set [2], the Ratio is on record as 100.

Take `C=CCNC(=O)C(=O)C(CCC)NC(=O)[C@@H]1[C@@H]2[C@H](CN1C(=O)[C@@H](NC(=O)N[C@@H](CN(C)C(=O)C1CC1)C(C)(C)C)C(C)(C)C)C2(C)C` (stereo not given in full): in data set [1], the affinity corresponds to a Ki of 91 nM. Also, the Ratio in data set [2] turned out to be 280.

In the case of `C=CCNC(=O)C(=O)C(CCC)NC(=O)[C@@H]1[C@@H]2[C@H](CN1C(=O)[C@@H](NC(=O)N[C@@H](CN(C)C(=O)C(C)(C)C)C(C)(C)C)C(C)(C)C)C2(C)C` (stereo not given in full), the affinity in data set [1] corresponds to a Ki of 23000 nM.

Regarding `C=CCNC(=O)C(=O)C(CCC)NC(=O)[C@@H]1[C@@H]2[C@H](CN1C(=O)[C@@H](NC(=O)N[C@@H](CN(C)C(C)=O)C(C)(C)C)C(C)(C)C)C2(C)C` (stereo not given in full), the EC90 with Hepatitis C virus was determined as 550 nM. Further, in data set [1], the inhibition constant Ki is 37 nM. Besides, in data set [2], the Ratio is listed as 150.

Consider `C=CCNC(=O)C(=O)C(CCC)NC(=O)[C@@H]1[C@@H]2[C@H](CN1C(=O)[C@@H](NC(=O)N[C@@H](CN(C)C(=O)C(F)(F)F)C(C)(C)C)C(C)(C)C)C2(C)C` (stereo not given in full), for which, in data set [1], the Ki was 42 nM. In addition, the Ratio in data set [2] turned out to be 75.

Take `C=CCNC(=O)C(=O)C(CCC)NC(=O)[C@@H]1[C@@H]2[C@H](CN1C(=O)[C@@H](NC(=O)N[C@@H](CN1Cc3ccccc3CC1=O)C(C)(C)C)C(C)(C)C)C2(C)C` (stereo not given in full): in the data set on Hepatitis C virus, the EC90 worked out at 200 nM. The molecule further came in with a Ki in data set [1] of 19 nM. Further, the Ratio in data set [2] was 250.

As for `C=CCNC(=O)C(=O)C(CCC)NC(=O)[C@@H]1[C@@H]2[C@H](CN1C(=O)[C@@H](NC(=O)N[C@@H](CN1CCC(C)(C)CC1=O)C(C)(C)C)C1CCCCC1)C2(C)C` (stereo not given in full), the EC90 in the data set on Hepatitis C virus turned out to be 45 nM. The AUC in data set [3] worked out at 2.09 µM·h. In data set [1], this molecule showed a Ki of 1.9 nM. In addition, the Ratio in data set [2] is listed as 60.

Consider `C=CCNC(=O)C(=O)C(CC1CC1)NC(=O)[C@@H]1[C@@H]2[C@H](CN1C(=O)[C@@H](NC(=O)N[C@@H](CN1CCC(C)(C)CC1=O)C(C)(C)C)C(C)(C)C)C2(C)C` (stereo not given in full), for which the EC90 with Hepatitis C virus was 70 nM. Also, in data set [3], the AUC came to 3.52 µM·h. This molecule registered a Ki in data set [1] of 15 nM. Also, the Ratio in data set [2] stood at 870.

On to `C=CCNC(=O)C(=O)C(CC1CCC1)NC(=O)[C@@H]1[C@@H]2[C@H](CN1C(=O)[C@@H](NC(=O)N[C@@H](CN1CCC(C)(C)CC1=O)C(C)(C)C)C(C)(C)C)C2(C)C` (stereo not given in full), for which the EC90 in the data set on Hepatitis C virus is 70 nM. In addition, in data set [3], the AUC worked out at 1 µM·h. The Ki in data set [1] turned out to be 28 nM. For the same molecule, the Ratio in data set [2] was found to be 1900.

On to `C#CCCC(NC(=O)[C@@H]1[C@@H]2[C@H](CN1C(=O)[C@@H](NC(=O)N[C@@H](CN1CCC(C)(C)CC1=O)C(C)(C)C)C(C)(C)C)C2(C)C)C(=O)C(=O)NCC=C` (stereo not given in full), for which, in the data set with Hepatitis C virus, the EC90 turned out to be 60 nM. In data set [3], the AUC was found to be 0.49 µM·h. The molecule further had a Ki in data set [1] of 5 nM. Moreover, the Ratio in data set [2] is listed as 210.

Turning to `C=CCNC(=O)C(=O)C(CCC)NC(=O)[C@@H]1[C@@H]2[C@H](CN1C(=O)[C@@H](NC(=O)OC(C)(C)C)C(C)(C)C)C2(C)C` (stereo not given in full), in data set [1], the Ki was found to be 1500 nM.

For the molecule `C=CCNC(=O)C(=O)C(CCC)NC(=O)[C@@H]1[C@@H]2[C@H](CN1C(=O)[C@@H](NC(=O)N[C@@H](CN1CCCCC1)C(C)(C)C)C(C)(C)C)C2(C)C` (stereo not given in full), in data set [1], the inhibition constant (Ki) came out at 2300 nM.

Consider `C=CCNC(=O)C(=O)C(CCC)NC(=O)[C@@H]1[C@@H]2[C@H](CN1C(=O)[C@@H](NC(=O)N[C@@H](CN1CCCCC1=O)C(C)(C)C)C1CCCCC1)C2(C)C` (stereo not given in full), for which the EC90 in the data set with Hepatitis C virus stood at 110 nM. In data set [3], this molecule gave an AUC of 0.7 µM·h. The same molecule displayed a Ki in data set [1] of 1.8 nM. The Ratio in data set [2] is 7.

As to `C=CCNC(=O)C(=O)C(CCC)NC(=O)[C@@H]1[C@@H]2[C@H](CN1C(=O)[C@@H](NC(=O)N[C@@H](CN1CCCCC1=O)C(C)(C)C)C1Cc3ccccc3C1)C2(C)C` (stereo not given in full), the 90% effect concentration (EC90) in the data set on Hepatitis C virus is 80 nM. Moreover, the AUC in data set [3] turned out to be 0.68 µM·h. In data set [1], this molecule registered a Ki of 9 nM. Also, the Ratio in data set [2] amounted to 18.

As to `C=CCNC(=O)C(=O)C(CCC)NC(=O)[C@@H]1[C@@H]2[C@H](CN1C(=O)[C@@H](NC(=O)N[C@@H](CN1CCC(C)(C)CC1=O)C(C)(C)C)C1Cc3ccccc3C1)C2(C)C` (stereo not given in full), the EC90 in the data set on Hepatitis C virus worked out at 80 nM. The molecule also had a Ki in data set [1] of 7 nM. Moreover, the Ratio in data set [2] was 110.

With `C=CCNC(=O)C(=O)C(CCCC)NC(=O)[C@@H]1[C@@H]2[C@H](CN1C(=O)[C@@H](NC(=O)N[C@@H](CN1CCC(C)(C)CC1=O)C(C)(C)C)C(C)(C)C)C2(C)C` (stereo not given in full), the EC90 in the data set with Hepatitis C virus was found to be 80 nM. In data set [1], this molecule gave a Ki of 19 nM. Also, the Ratio in data set [2] came out at 850.

On to `CC(C)(C)NC(=O)N[C@H](C(=O)N1C[C@H]2[C@@H]([C@H]1C(=O)NC(CC1CCC1)C(=O)C(N)=O)C2(C)C)C(C)(C)C` (stereo not given in full) [BOCEPREVIR], for which, in the data set with Hepatitis C virus, the EC90 is 350 nM. The same molecule returned a Ki in data set [1] of 14 nM.

By EC90 is commonly meant the concentration needed for an effect of 90%. As a reminder, the Ki is a dissociation constant, usually derived from enzyme kinetics or from competition with a known ligand. A word on the AUC: it is concentration integrated over time.
